In brackets after ≈: the same amount, converted by molar mass. Activity calls are given as the source filed them. No cut-off for these calls is given here. Bridge positions count the residues as written; N and C are the ends. Square brackets hold non-standard residues; d marks the D form. Peptide text beside a SMILES is read from it. * marks the point of attachment. ξ: configuration not given here. Hexanoyl(4ξ-Me) = CCC(C)CCC(=O)*; dOrn = NCCC[C@@H](N)C(=O)O; Orn = NCCC[C@H](N)C(=O)O
What was measured:
[1] = system: Staphylococcus aureus; assay: Antibacterial activity against Staphylococcus aureus ATCC 25923 pretreated with 5% mouse serum followed by compound addition and measured after 1 hr by broth microdilution method (reference value: 8 microM); format: functional
[2] = system: Staphylococcus aureus; assay: Antibacterial activity against Staphylococcus aureus ATCC 25923 pretreated with 10% mouse serum followed by compound addition and measured after 1 hr by broth microdilution method (reference value: 8 microM); format: functional
[3] = system: Staphylococcus aureus; assay: Antibacterial activity against Staphylococcus aureus ATCC 25923 pretreated with 20% mouse serum followed by compound addition and measured after 1 hr by broth microdilution method (reference value: 8 microM); format: functional
[4] = system: Staphylococcus aureus; assay: Antibacterial activity against Staphylococcus aureus ATCC 25923 pretreated with Mgcl2 followed by compound addition and measured after 2 hrs by broth microdilution method (reference value: 8 microM); format: functional
[5] = system: Staphylococcus aureus; assay: Antibacterial activity against Staphylococcus aureus ATCC 25923 pretreated with FeCl3 followed by compound addition and measured after 2 hrs by broth microdilution method (reference value: 8 microM); format: functional
[6] = system: Staphylococcus aureus; assay: Antibacterial activity against Staphylococcus aureus ATCC 25923 pretreated with ZnCl2 followed by compound addition and measured after 2 hrs by broth microdilution method (reference value: 8 microM); format: functional
[7] = system: Staphylococcus aureus; assay: Bactericidal activity against Staphylococcus aureus ATCC 25923 assessed as assessed as eradication of bacterial cells at 1 to 4 times MIC measured after 0.5 to 1 hr by time killing analysis; format: functional, organism-based; settings: time 0.5-1 hrs
[8] = system: Cell membrane; assay: Induction of cytoplasmic membrane depolarization in Staphylococcus aureus ATCC 25923 assessed as increase in fluorescence intensity measured upto 12 min by DiSC3-5 dye based fluorescence method; format: cell membranes
[9] = Toxicity in male BALB/c mouse assessed as survival rate at 29.2 mg/kg, ip measured after 7 days relative to control; format: organism-based; settings: in vivo, time 7 day
[10] = Toxicity in male BALB/c mouse assessed as survival rate at 62.6 mg/kg, ip measured after 6 days relative to control; format: organism-based; settings: in vivo, time 6 day
[11] = Toxicity in male BALB/c mouse assessed as lethal dose administered as ip measured after 7 days; format: organism-based; settings: male, BALB/c, in vivo, time 7 day
[12] = Toxicity in male BALB/c mouse assessed as hemorrhage in liver at 46.88 mg/kg, ip administered as single dose by H and E staining based analysis; format: organism-based; settings: in vivo
[13] = Toxicity in male BALB/c mouse assessed as inflammatory cell infiltration in kidney at 46.88 mg/kg, ip administered as single dose by H and E staining based analysis; format: organism-based; settings: in vivo
[14] = Toxicity in male BALB/c mouse assessed as edema in kidney at 46.88 mg/kg, ip administered as single dose by H and E staining based analysis; format: organism-based; settings: in vivo
[15] = system: Staphylococcus aureus; assay: In vivo antibacterial activity against Staphylococcus aureus ATCC 25923 infected in BALB/c mouse model assessed as reduction in bacterial count in liver at 10 mg/kg, ip preadministered with compound for 1 hr followed by bacterial infection and measured after 6 hrs […]; format: functional, organism-based; settings: time 7.0 hrs
[16] = system: Staphylococcus aureus; assay: Antibacterial activity against Staphylococcus aureus ATCC 25923 assessed as fold increase in MIC pretreated with MgCl2 followed by compound addition and measured after 2 hrs by broth microdilution method; format: functional
[17] = system: Staphylococcus aureus; assay: Antibacterial activity against Staphylococcus aureus ATCC 25923 pretreated with 5% mouse serum followed by compound addition and measured after 1 hr by broth microdilution method (reference value: 64 microM); format: functional
[18] = system: Staphylococcus aureus; assay: Antibacterial activity against Staphylococcus aureus ATCC 25923 pretreated with 10% mouse serum followed by compound addition and measured after 6 hrs by broth microdilution method (reference value: 64 microM); format: functional
[19] = system: Staphylococcus aureus; assay: Antibacterial activity against Staphylococcus aureus ATCC 25923 pretreated with Na-cl followed by compound addition and measured after 2 hrs by broth microdilution method (reference value: 64 microM); format: functional
[20] = system: Staphylococcus aureus; assay: Antibacterial activity against Staphylococcus aureus ATCC 25923 pretreated with Kcl followed by compound addition and measured after 2 hrs by broth microdilution method (reference value: 64 microM); format: functional
[21] = system: Pseudomonas aeruginosa; assay: Bactericidal activity against Pseudomonas aeruginosa ATCC 27853 assessed as assessed as eradication of bacterial cells at 1/2 to 1 times MIC measured after 1 hr by time killing analysis relative to control; format: functional
[22] = system: Pseudomonas aeruginosa; assay: Bactericidal activity against Pseudomonas aeruginosa ATCC 27853 assessed as assessed as eradication of bacterial cells at 2 to 4 times MIC measured after 0.5 hr by time killing analysis; format: functional, organism-based
[23] = system: Staphylococcus aureus; assay: Bactericidal activity against Staphylococcus aureus ATCC 25923 assessed as assessed as eradication of bacterial cells at 1/2 to 4 times MIC measured after 0.5 hr by time killing analysis; format: functional, organism-based
[24] = system: Pseudomonas aeruginosa; assay: Antibacterial activity against Pseudomonas aeruginosa ATCC 27853 assessed as fold increase in MIC pretreated with 2.5 to 20% mouse serum followed by compound addition and measured after 6 hr by broth microdilution method; format: functional
[25] = system: Staphylococcus aureus; assay: Antibacterial activity against Staphylococcus aureus ATCC 25923 pretreated with 2.5% mouse serum followed by compound addition and measured after 1 hrs by broth microdilution method (reference value: 16 microM); format: functional, organism-based
[26] = system: Staphylococcus aureus; assay: Antibacterial activity against Staphylococcus aureus ATCC 25923 pretreated with 5% mouse serum followed by compound addition and measured after 1 hr by broth microdilution method (reference value: 16 microM); format: functional, organism-based
[27] = system: Staphylococcus aureus; assay: Antibacterial activity against Staphylococcus aureus ATCC 25923 pretreated with Mgcl2 followed by compound addition and measured after 2 hrs by broth microdilution method (reference value: 16 microM); format: functional, organism-based
[28] = system: Staphylococcus aureus; assay: Antibacterial activity against Staphylococcus aureus ATCC 25923 pretreated with FeCl3 followed by compound addition and measured after 2 hrs by broth microdilution method (reference value: 16 microM); format: functional, organism-based
[29] = system: Pseudomonas aeruginosa; assay: Antibiofilm activity against Pseudomonas aeruginosa ATCC 27853 assessed as biofilm eradication at 1/2 to 4 times MIC measured after 24 hrs by crystal violet staining based analysis; format: functional, organism-based
[30] = system: Staphylococcus aureus; assay: Antibacterial activity against Staphylococcus aureus ATCC 25923 at sub-MIC measured after 6 days; format: functional, organism-based; settings: time 6.0 day

CCCCCCCCCC(=O)N[C@H](CCCN)C(=O)N[C@H](Cc1ccc(O)cc1)C(=O)N[C@H](Cc1c[nH]c2ccccc12)C(=O)N[C@H](CCCN)C(=O)N[C@@H](CCCN)C(=O)NCC(=O)N[C@H](CCCN)C(=O)N[C@@H](Cc1c[nH]c2ccccc12)C(=O)N[C@H](C(=O)N[C@H](C(=O)NCC(=O)N[C@@H](CO)C(=O)O)[C@@H](C)CC)[C@@H](C)O
MIC [1]: 16 µM (≈ 25.3 µg/mL)
MIC [2]: 32 µM (≈ 50.6 µg/mL)
MIC [3]: > 128 µM
MIC [4]: 8 µM (≈ 12.6 µg/mL)
MIC [5]: 8 µM (≈ 12.6 µg/mL)
MIC [6]: 32 µM (≈ 50.6 µg/mL)
Activity [7]: Active
Activity [8]: Dose-Dependent Effect
survival at 168 h [9]: 100%
survival at 144 h [10]: 12.5%
LD50 at 168 h [11]: 46.9 mg/kg
Activity [12]: Toxic
Activity [13]: Toxic
Activity [14]: Toxic
Activity [15]: Active
fold change (FC) [16]: 2

CCC(C)CCC(=O)N[C@H](CC(N)=O)C(=O)N[C@H](Cc1ccc(O)cc1)C(=O)N[C@H](Cc1c[nH]c2ccccc12)C(=O)N[C@H](CCCN)C(=O)N[C@@H](CCCN)C(=O)NCC(=O)N[C@H](CCCN)C(=O)N[C@@H](Cc1c[nH]c2ccccc12)C(=O)N[C@@H]1C(=O)N[C@@H]([C@@H](C)CC)C(=O)NCC(=O)N[C@@H](CO)C(=O)O[C@@H]1C (stereo not given in full) ({Hexanoyl(4ξ-Me)}-[dN][dY][dW][dOrn][Orn]G[dOrn]WTIGS; ester 9-C)
MIC [17]: 64 µM (≈ 97.3 µg/mL)
MIC [18]: 128 µM (≈ 195 µg/mL)
MIC [19]: 128 µM (≈ 195 µg/mL)
MIC [20]: 64 µM (≈ 97.3 µg/mL)
Activity [21]: 100%
Activity [22]: Active
Activity [23]: Active
fold change (FC) [24]: 4

POLYMYXIN B
MIC [25]: 16 µM
MIC [26]: 16 µM
MIC [27]: 8 µM
MIC [28]: 8 µM
Activity [29]: Active
Activity [30]: inactive

Reference: ChEMBL document CHEMBL5512645, “A novel antimicrobial peptide with broad-spectrum and exceptional stability derived from the natural peptide Brevicidine” (Eur J Med Chem, 2024)
